Target: T1, human TLR8 (Homo sapiens, UniProt Q9NR97)
T1 construct: host or cells: HEK293 (HEK-Blue hTLR8)
T1 sequence (Q9NR97 27-1041): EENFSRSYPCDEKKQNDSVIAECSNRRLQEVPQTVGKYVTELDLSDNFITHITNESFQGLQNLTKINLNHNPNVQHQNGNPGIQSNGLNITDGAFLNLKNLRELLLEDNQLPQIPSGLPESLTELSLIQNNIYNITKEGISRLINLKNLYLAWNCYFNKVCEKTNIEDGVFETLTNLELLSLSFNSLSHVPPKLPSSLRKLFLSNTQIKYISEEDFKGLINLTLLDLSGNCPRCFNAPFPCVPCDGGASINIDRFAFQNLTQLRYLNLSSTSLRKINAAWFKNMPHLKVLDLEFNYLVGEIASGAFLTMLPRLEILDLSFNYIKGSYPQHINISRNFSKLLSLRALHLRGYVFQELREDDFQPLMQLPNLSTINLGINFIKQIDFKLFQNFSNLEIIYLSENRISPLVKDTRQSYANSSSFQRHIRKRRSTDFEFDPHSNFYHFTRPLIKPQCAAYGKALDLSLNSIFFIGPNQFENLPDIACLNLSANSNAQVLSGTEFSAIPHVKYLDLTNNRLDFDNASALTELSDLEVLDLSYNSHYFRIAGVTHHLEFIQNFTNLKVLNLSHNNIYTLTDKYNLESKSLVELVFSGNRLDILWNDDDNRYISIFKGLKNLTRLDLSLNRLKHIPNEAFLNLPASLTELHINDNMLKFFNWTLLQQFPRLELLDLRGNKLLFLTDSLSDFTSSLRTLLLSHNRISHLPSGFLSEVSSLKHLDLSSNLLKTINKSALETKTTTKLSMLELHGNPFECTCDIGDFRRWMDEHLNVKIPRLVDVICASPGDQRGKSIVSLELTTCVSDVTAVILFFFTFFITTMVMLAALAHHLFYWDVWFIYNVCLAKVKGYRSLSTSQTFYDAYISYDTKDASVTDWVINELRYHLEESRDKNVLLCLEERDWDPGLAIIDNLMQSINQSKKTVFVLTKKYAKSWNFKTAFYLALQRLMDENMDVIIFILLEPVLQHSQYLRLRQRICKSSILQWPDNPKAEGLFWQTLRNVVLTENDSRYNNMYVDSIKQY
Assay: HEK293-Blue-hTLR-8 cells assay (SEAP reporter, R848 stimulation)
Type: cell-based
Conditions: HEK293-Blue-hTLR8 cells, R848, 20 hrs
Protocol: The following tests were carried out in order to determine the activity of the compounds of formula (I) in HEK293-Blue-hTLR-7/8/9 cells assay.
HEK293-Blue-hTLR-8 Cells Assay:
A stable HEK293-Blue-hTLR-8 cell line was purchased from InvivoGen (Cat. #: hkb-htlr8, San Diego, Calif., USA). These cells were originally designed for studying the stimulation of human TLR8 by monitoring the activation of NF-κB. A SEAP (secreted embryonic alkaline phosphatase) reporter gene was placed under the control of the IFN-β minimal promoter fused to five NF-κB and AP-1-binding sites. The SEAP was induced by activating NF-κB and AP-1 via stimulating HEK-Blue hTLR8 cells with TLR8 ligands. Therefore the reporter expression was declined by TLR8 antagonist under the stimulation of a ligand, such as R848, for incubation of 20 hrs. The cell culture supernatant SEAP reporter activity was determined using QUANTI-Blue™ kit (Cat #. rep-qbl, Invivogen, San Diego, Calif., USA) at a wavelength of 640 nm, a detection medium that turns purple or blue in the presence of alkaline phosphatase.
HEK293-Blue-hTLR8 cells were incubated at a density of 250,000˜450,000 cells/mL in a volume of 170 μL in a 96-well plate in Dulbecco's Modified Eagle's medium (DMEM) containing 4.5 g/L glucose, 50 U/mL penicillin, […], […], 2 mM L-glutamine, 10% (v/v) heat-inactivated fetal bovine serum with addition of 20 μL test compound in a serial dilution in the presence of final DMSO at 1% and 10 μL of 60 μM R848 in above DMEM, perform incubation under 37° C. in a CO2 incubator for 20 hrs. Then 20 μL of the supernatant from each well was incubated with 180 μL Quanti-blue substrate solution at 37° C. for 2 hrs and the absorbance was read at 620˜655 nm using a spectrophotometer. The signalling pathway that TLR8 activation leads to downstream NF-KB activation has been widely accepted, and therefore similar reporter assay was modified for evaluating TLR8 antagonist.

Compound	IC50
C[C@@H]1CN(c2ccc(C(F)(F)F)c3ncccc23)C[C@H](C(=O)N[C@@H]2CNC[C@@H]2F)O1 (single isomer, unassigned) [Example 2A]	< 3 nM
C[C@@H]1CN(c2ccc(C(F)(F)F)c3ncccc23)C[C@H](C(=O)N[C@H]2CNC[C@H]2F)O1 (single isomer, unassigned) [Example 2B]	8 nM
C[C@@H]1CN(c2ccc(C(F)(F)F)c3ncccc23)C[C@H](C(=O)NC2CC3CCCC(C2)N3)O1 (single isomer, unassigned) [Example 34A]	< 3 nM
C[C@@H]1CN(c2ccc(C(F)(F)F)c3ncccc23)C[C@H](C(=O)NC2CC3CCCC(C2)N3)O1 (single isomer, unassigned) [Example 34B]	6 nM
CC(NC(=O)[C@H]1CN(c2ccc(C(F)(F)F)c3ncccc23)C[C@@H](C)O1)C1CN(C)CCO1 (single isomer, unassigned) [Example 35A]	6 nM
CC(NC(=O)[C@H]1CN(c2ccc(C(F)(F)F)c3ncccc23)C[C@@H](C)O1)C1CN(C)CCO1 (single isomer, unassigned) [Example 35B]	< 3 nM
C[C@@H]1CN(c2ccc(C(F)(F)F)c3ncccc23)C[C@H](C(=O)NC2C3CNCC2COC3)O1 (single isomer, unassigned) [Example 46A]	16 nM
C[C@@H]1CN(c2ccc(C(F)(F)F)c3ncccc23)C[C@H](C(=O)NC2C3CNCC2COC3)O1 (single isomer, unassigned) [Example 46B]	55 nM
C[C@@H]1CN(c2ccc(C(F)(F)F)c3ncccc23)C[C@H](C(=O)NC2CC3CCC(C2)N3)O1 (single isomer, unassigned) [Example 47A]	< 3 nM
C[C@@H]1CN(c2ccc(C(F)(F)F)c3ncccc23)C[C@H](C(=O)NC2CC3CCC(C2)N3)O1 (single isomer, unassigned) [Example 47B]	< 3 nM
C[C@@H]1CN(c2ccc(C(F)(F)F)c3ncccc23)C[C@H](C(=O)NC2CC3CNCC32)O1 (single isomer, unassigned) [Example 49A]	22 nM
C[C@@H]1CN(c2ccc(C(F)(F)F)c3ncccc23)C[C@H](C(=O)NC2CC3CNCC32)O1 (single isomer, unassigned) [Example 49B]	9 nM
C[C@@H]1CN(c2ccc(C(F)(F)F)c3ncccc23)C[C@H](C(=O)NC2CC3CNCC32)O1 (single isomer, unassigned) [Example 49C]	5 nM
C[C@H]1C[C@@H](N)CN(c2ccc(C(F)(F)F)c3ncccc23)C1 [Example 1, (3R,5S)-5-methyl-1-[8-(trifluoromethyl)-5-quinolyl]piperidin-3-amine]	< 3 nM
C[C@@H]1CN(c2ccc(C(F)(F)F)c3ncccc23)C[C@H](C(=O)NC2CNC[C@@H]2F)O1 (stereo partly drawn) [Example 2, cis-(2R,6R)-N-(4-fluoropyrrolidin-3-yl)-6-methyl-4-[8-(trifluoromethyl)-5-quinolyl]morpholine-2-carboxamide]	6 nM
C[C@@H]1CN(c2ccc(C(F)(F)F)c3ncccc23)C[C@H](C(=O)NCC2CN(C)CCO2)O1 (stereo partly drawn) [Example 3, (2R,6R)-6-methyl-N-[(4-methylmorpholin-2-yl)methyl]-4-[8-(trifluoromethyl)-5-quinolyl]morpholine-2-carboxamide]	< 3 nM
C[C@@H]1CN(c2ccc(C(F)(F)F)c3ncccc23)C[C@H](C(=O)NCC2CCCCN2C)O1 (stereo partly drawn) [Example 4, (2R,6R)-6-methyl-N-[(1-methyl-2-piperidyl)methyl]-4-[8-(trifluoromethyl)-5-quinolyl]morpholine-2-carboxamide]	10 nM
C[C@@H]1CN(c2ccc(C(F)(F)F)c3ncccc23)C[C@H](C(=O)NC2CCN(C)CC2)O1 [Example 5, (2R,6R)-6-methyl-N-(1-methyl-4-piperidyl)-4-[8-(trifluoromethyl)-5-quinolyl]morpholine-2-carboxamide]	< 3 nM
C[C@@H]1CN(c2ccc(C(F)(F)F)c3ncccc23)C[C@H](C(=O)NCC(C)(C)N)O1 [Example 6, (2R,6R)-N-(2-amino-2-methyl-propyl)-6-methyl-4-[8-(trifluoromethyl)-5-quinolyl]morpholine-2-carboxamide]	26 nM
C[C@@H]1CN(c2ccc(C(F)(F)F)c3ncccc23)C[C@H](C(=O)N2CC(N)C2)O1 [Example 7, (3-aminoazetidin-1-yl)-[(2R,6R)-6-methyl-4-[8-(trifluoromethyl)-5-quinolyl]morpholin-2-yl]methanone]	35 nM
C[C@@H]1CN(c2ccc(C(F)(F)F)c3ncccc23)C[C@H](C(=O)NC2CCCNCC2)O1 (stereo partly drawn) [Example 8, (2R,6R)-N-(azepan-4-yl)-6-methyl-4-[8-(trifluoromethyl)-5-quinolyl]morpholine-2-carboxamide]	< 3 nM
C[C@@H]1CN(c2ccc(C(F)(F)F)c3ncccc23)C[C@H](C(=O)NC2CN(C)CC23CC3)O1 (stereo partly drawn) [Example 9, (2R,6R)-6-methyl-N-(5-methyl-5-azaspiro[2.4]heptan-7-yl)-4-[8-(trifluoromethyl)-5-quinolyl]morpholine-2-carboxamide]	< 3 nM
C[C@@H]1CN(c2ccc(C(F)(F)F)c3ncccc23)C[C@H](C(=O)N2CCC(N)C2)O1 (stereo partly drawn) [Example 10, (3-aminopyrrolidin-1-yl)-[(2R,6R)-6-methyl-4-[8-(trifluoromethyl)-5-quinolyl]morpholin-2-yl]methanone]	29 nM
C[C@@H]1CN(c2ccc(C(F)(F)F)c3ncccc23)C[C@H](C(=O)NCC2COCCN2C)O1 (stereo partly drawn) [Example 11, (2R,6R)-6-methyl-N-[(4-methylmorpholin-3-yl)methyl]-4-[8-(trifluoromethyl)-5-quinolyl]morpholine-2-carboxamide]	62 nM
C[C@@H]1CN(c2ccc(C(F)(F)F)c3ncccc23)C[C@H](C(=O)N2CCC(N)CC2)O1 [Example 12, (4-amino-1-piperidyl)-[(2R,6R)-6-methyl-4-[8-(trifluoromethyl)-5-quinolyl]morpholin-2-yl]methanone]	5 nM
C[C@@H]1CN(c2ccc(C(F)(F)F)c3ncccc23)C[C@H](C(=O)NCCN2CCOCC2)O1 [Example 13, (2R,6R)-6-methyl-N-(2-morpholinoethyl)-4-[8-(trifluoromethyl)-5-quinolyl]morpholine-2-carboxamide]	52 nM
C[C@@H]1CN(c2ccc(C(F)(F)F)c3ncccc23)C[C@H](C(=O)NC2CNCCOC2)O1 (stereo partly drawn) [Example 14, (2R,6R)-6-methyl-N-(1,4-oxazepan-6-yl)-4-[8-(trifluoromethyl)-5-quinolyl]morpholine-2-carboxamide]	7 nM
Cc1ccc(N2C[C@@H](C)C[C@@H](N)C2)c2cccnc12 [Example 15, (3R,5S)-5-methyl-1-(8-methyl-5-quinolyl)piperidin-3-amine]	15 nM
Cc1ccc(N2C[C@@H](C)O[C@@H](C(=O)NC3CCN(C)CC3)C2)c2cccnc12 [Example 16, (2R,6R)-6-methyl-N-(1-methyl-4-piperidyl)-4-(8-methyl-5-quinolyl)morpholine-2-carboxamide]	8 nM
Cc1ccc(N2C[C@@H](C)O[C@@H](C(=O)NCC3CN(C)CCO3)C2)c2cccnc12 (stereo partly drawn) [Example 17, (2R,6R)-6-methyl-N-[(4-methylmorpholin-2-yl)methyl]-4-(8-methyl-5-quinolyl)morpholine-2-carboxamide]	25 nM
